Assay results from ChEMBL document CHEMBL1759957, “Synthesis and antibacterial evaluation of novel 8-fluoro Norfloxacin derivatives as potential probes for methicillin and vancomycin-resistant Staphylococcus aureus” (2011).
Values after ≈ are worked out from the molar mass of the structure shown.

Key:
Assay in all cases: microbe, parasite or virus in culture
Format in all cases: functional
[1] = test system: Staphylococcus aureus; details: ATCC 25923, 24 h
Description: Antibacterial activity against methicillin- resistant Staphylococcus aureus ATCC 25923 after 24 hrs by spectrophotometry

[2] = test system: Klebsiella pneumoniae; details: ATCC 27736, 24 h
Description: Antibacterial activity against Klebsiella pneumoniae ATCC 27736 after 24 hrs by spectrophotometry

[3] = test system: Staphylococcus aureus; details: ATCC 29213, 24 h
Description: Antibacterial activity against methicillin- resistant and vancomycin resistant Staphylococcus aureus ATCC 29213 after 24 hrs by spectrophotometry

Row | SMILES | MIC [1] | MIC [2] | MIC [3]
1 | CCCNc1nc(NCCC)nc(N2CCN(c3c(F)cc4c(=O)c(C(=O)O)cn(CC)c4c3F)CC2)n1 | 0.78 µg/mL (≈ 1.47 µM) | 0.19 µg/mL (≈ 0.358 µM) | 0.78 µg/mL (≈ 1.47 µM)
2 | CCn1cc(C(=O)O)c(=O)c2cc(F)c(N3CCN(c4nc(NC(C)C)nc(NC(C)C)n4)CC3)c(F)c21 | 0.39 µg/mL (≈ 0.735 µM) | 0.39 µg/mL (≈ 0.735 µM) | 0.78 µg/mL (≈ 1.47 µM)
3 | O=C(O)c1cn(Cc2ccc(C(F)(F)F)cc2)c2c(F)c(N3CCN(c4nc(N5CCOCC5)nc(N5CCOCC5)n4)CC3)c(F)cc2c1=O | 3.12 µg/mL (≈ 4.35 µM) | 1.56 µg/mL (≈ 2.18 µM) | 1.56 µg/mL (≈ 2.18 µM)
4 | O=C(O)c1cn(Cc2ccc(C(F)(F)F)cc2)c2c(F)c(N3CCN(c4nc(N5CCCCC5)nc(N5CCCCC5)n4)CC3)c(F)cc2c1=O | 50 µg/mL (≈ 70.2 µM) | 50 µg/mL (≈ 70.2 µM) | –
5 | CN1CCN(c2nc(N3CCN(C)CC3)nc(N3CCN(c4cc5c(cc4F)c(=O)c(C(=O)O)cn5Cc4ccc(C(F)(F)F)cc4)CC3)n2)CC1 | 25 µg/mL (≈ 34.5 µM) | 12.5 µg/mL (≈ 17.2 µM) | –
6 | O=C(O)c1cn(Cc2ccc(C(F)(F)F)cc2)c2c(F)c(N3CCN(c4nc(NCCN5CCOCC5)nc(NCCN5CCOCC5)n4)CC3)c(F)cc2c1=O | 12.5 µg/mL (≈ 15.6 µM) | 6.25 µg/mL (≈ 7.79 µM) | –
7 | O=C(O)c1cn(Cc2ccc(C(F)(F)F)cc2)c2c(F)c(N3CCN(c4nc(NCCCN5CCOCC5)nc(NCCCN5CCOCC5)n4)CC3)c(F)cc2c1=O | > 50 µg/mL | 50 µg/mL (≈ 60.2 µM) | –
8 | CCCCNc1nc(NCCCC)nc(N2CCN(c3c(F)cc4c(=O)c(C(=O)O)cn(Cc5ccc(C(F)(F)F)cc5)c4c3F)CC2)n1 | 3.12 µg/mL (≈ 4.53 µM) | 0.39 µg/mL (≈ 0.566 µM) | 0.39 µg/mL (≈ 0.566 µM)
9 | CC(C)(C)Nc1nc(NC(C)(C)C)nc(N2CCN(c3c(F)cc4c(=O)c(C(=O)O)cn(Cc5ccc(C(F)(F)F)cc5)c4c3F)CC2)n1 | 3.12 µg/mL (≈ 4.53 µM) | 1.56 µg/mL (≈ 2.27 µM) | 6.25 µg/mL (≈ 9.08 µM)
10 | CCCNc1nc(NCCC)nc(N2CCN(c3c(F)cc4c(=O)c(C(=O)O)cn(Cc5ccc(C(F)(F)F)cc5)c4c3F)CC2)n1 | 1.56 µg/mL (≈ 2.36 µM) | 0.78 µg/mL (≈ 1.18 µM) | 1.56 µg/mL (≈ 2.36 µM)
11 | CC(C)Nc1nc(NC(C)C)nc(N2CCN(c3c(F)cc4c(=O)c(C(=O)O)cn(Cc5ccc(C(F)(F)F)cc5)c4c3F)CC2)n1 | 0.78 µg/mL (≈ 1.18 µM) | 0.39 µg/mL (≈ 0.59 µM) | 0.78 µg/mL (≈ 1.18 µM)
12 | CCn1cc(C(=O)O)c(=O)c2cc(F)c(N3CCN(c4cc(C)nc(N5CCOCC5)n4)CC3)c(F)c21 | 0.39 µg/mL (≈ 0.758 µM) | 0.045 µg/mL (≈ 0.0875 µM) | 0.045 µg/mL (≈ 0.0875 µM)
13 | CCn1cc(C(=O)O)c(=O)c2cc(F)c(N3CCN(c4cc(C)nc(N5CCCCC5)n4)CC3)c(F)c21 | 0.39 µg/mL (≈ 0.761 µM) | 0.045 µg/mL (≈ 0.0878 µM) | 0.39 µg/mL (≈ 0.761 µM)
14 | CCn1cc(C(=O)O)c(=O)c2cc(F)c(N3CCN(c4cc(C)nc(N5CCN(C)CC5)n4)CC3)cc21 | > 50 µg/mL | > 50 µg/mL | –
15 | CCn1cc(C(=O)O)c(=O)c2cc(F)c(N3CCN(c4cc(C)nc(NCCN5CCOCC5)n4)CC3)c(F)c21 | 0.22 µg/mL (≈ 0.395 µM) | 0.22 µg/mL (≈ 0.395 µM) | 0.19 µg/mL (≈ 0.341 µM)
16 | CCn1cc(C(=O)O)c(=O)c2cc(F)c(N3CCN(c4cc(C)nc(NCCCN5CCOCC5)n4)CC3)c(F)c21 | 0.22 µg/mL (≈ 0.385 µM) | 0.22 µg/mL (≈ 0.385 µM) | 0.19 µg/mL (≈ 0.332 µM)

Row | SMILES | MIC [1] | MIC [2] | MIC [3]
17 | CCCCNc1nc(C)cc(N2CCN(c3c(F)cc4c(=O)c(C(=O)O)cn(CC)c4c3F)CC2)n1 | 0.78 µg/mL (≈ 1.56 µM) | 0.78 µg/mL (≈ 1.56 µM) | 0.09 µg/mL (≈ 0.18 µM)
18 | CCn1cc(C(=O)O)c(=O)c2cc(F)c(N3CCN(c4cc(C)nc(NC(C)(C)C)n4)CC3)c(F)c21 | 1.56 µg/mL (≈ 3.12 µM) | 0.78 µg/mL (≈ 1.56 µM) | 0.78 µg/mL (≈ 1.56 µM)
19 | CCCNc1nc(C)cc(N2CCN(c3c(F)cc4c(=O)c(C(=O)O)cn(CC)c4c3F)CC2)n1 | 0.39 µg/mL (≈ 0.802 µM) | 0.09 µg/mL (≈ 0.185 µM) | 0.39 µg/mL (≈ 0.802 µM)
20 | CCn1cc(C(=O)O)c(=O)c2cc(F)c(N3CCN(c4cc(C)nc(NC(C)C)n4)CC3)c(F)c21 | 0.22 µg/mL (≈ 0.452 µM) | 0.011 µg/mL (≈ 0.0226 µM) | 0.19 µg/mL (≈ 0.391 µM)
21 | Cc1cc(N2CCN(c3c(F)cc4c(=O)c(C(=O)O)cn(Cc5ccc(C(F)(F)F)cc5)c4c3F)CC2)nc(N2CCOCC2)n1 | 1.56 µg/mL (≈ 2.42 µM) | 0.78 µg/mL (≈ 1.21 µM) | 1.56 µg/mL (≈ 2.42 µM)
22 | Cc1cc(N2CCN(c3c(F)cc4c(=O)c(C(=O)O)cn(Cc5ccc(C(F)(F)F)cc5)c4c3F)CC2)nc(N2CCCCC2)n1 | 0.78 µg/mL (≈ 1.21 µM) | 0.39 µg/mL (≈ 0.607 µM) | 0.39 µg/mL (≈ 0.607 µM)
23 | Cc1cc(N2CCN(c3cc4c(cc3F)c(=O)c(C(=O)O)cn4Cc3ccc(C(F)(F)F)cc3)CC2)nc(N2CCN(C)CC2)n1 | 6.25 µg/mL (≈ 9.77 µM) | 6.25 µg/mL (≈ 9.77 µM) | 12.5 µg/mL (≈ 19.5 µM)
24 | Cc1cc(N2CCN(c3c(F)cc4c(=O)c(C(=O)O)cn(Cc5ccc(C(F)(F)F)cc5)c4c3F)CC2)nc(NCCN2CCOCC2)n1 | 0.78 µg/mL (≈ 1.13 µM) | 1.56 µg/mL (≈ 2.27 µM) | 1.56 µg/mL (≈ 2.27 µM)
25 | Cc1cc(N2CCN(c3c(F)cc4c(=O)c(C(=O)O)cn(Cc5ccc(C(F)(F)F)cc5)c4c3F)CC2)nc(NCCCN2CCOCC2)n1 | 25 µg/mL (≈ 35.6 µM) | 6.25 µg/mL (≈ 8.91 µM) | –
26 | CCCCNc1nc(C)cc(N2CCN(c3c(F)cc4c(=O)c(C(=O)O)cn(Cc5ccc(C(F)(F)F)cc5)c4c3F)CC2)n1 | 6.25 µg/mL (≈ 9.91 µM) | 6.25 µg/mL (≈ 9.91 µM) | 1.56 µg/mL (≈ 2.47 µM)
27 | Cc1cc(N2CCN(c3c(F)cc4c(=O)c(C(=O)O)cn(Cc5ccc(C(F)(F)F)cc5)c4c3F)CC2)nc(NC(C)(C)C)n1 | 1.56 µg/mL (≈ 2.47 µM) | 0.19 µg/mL (≈ 0.301 µM) | 1.56 µg/mL (≈ 2.47 µM)
28 | CCCNc1nc(C)cc(N2CCN(c3c(F)cc4c(=O)c(C(=O)O)cn(Cc5ccc(C(F)(F)F)cc5)c4c3F)CC2)n1 | 1.56 µg/mL (≈ 2.53 µM) | 1.56 µg/mL (≈ 2.53 µM) | 3.12 µg/mL (≈ 5.06 µM)
29 | Cc1cc(N2CCN(c3c(F)cc4c(=O)c(C(=O)O)cn(Cc5ccc(C(F)(F)F)cc5)c4c3F)CC2)nc(NC(C)C)n1 | 0.78 µg/mL (≈ 1.27 µM) | 0.19 µg/mL (≈ 0.308 µM) | 0.78 µg/mL (≈ 1.27 µM)
30 | CCn1cc(C(=O)O)c(=O)c2cc(F)c(N3CCNCC3)c(F)c21 | 0.78 µg/mL (≈ 2.31 µM) | 0.045 µg/mL (≈ 0.133 µM) | 0.39 µg/mL (≈ 1.16 µM)
31 | CCn1cc(C(=O)O)c(=O)c2cc(F)c(N3CCN(C)CC3)c(F)c21 | 0.19 µg/mL (≈ 0.541 µM) | 0.011 µg/mL (≈ 0.0313 µM) | 0.19 µg/mL (≈ 0.541 µM)
